Measured values published in US7815907B2, “Antibodies to insulin-like growth factor I receptor” (Amgen Fremont Inc., priority 2001, dated 2010).

Columns and labels:
IGF-IR = IGF-IR (Homo sapiens, UniProt P08069); test: IGF-IR and IGF-IR phosphotyrosine levels in 3T3-IGF-IR tumors in vivo (ELISA); parameters: expressed in transfected cells; host or cells: NIH-3T3 (mouse fibroblasts); species or system athymic (nu/nu) mice
Text: We determined whether the effects of the antibodies of the invention on IGF-IR as described in the previous examples would occur in vivo. We induced tumors in athymic mice according to published methods (V. A. Pollack et al., “Inhibition of epidermal growth factor receptor-associated tyrosine phosphorylation in human carcinomas with CP-358,774: Dynamics of receptor inhibition in situ and antitumor effects in athymic mice,” J. Pharmacol. Exp. Ther. 291:739-748 (1999). Briefly, we injected IGF-IR-transfected NIH-3T3 cells (5×10^6) subcutaneously into 3-4 week-old athymic (nu/nu) mice with 0.2 ml of Matrigel preparation. We then injected mice with an antibody of the invention intraperitoneally after established (i.e. approximately 400 mm^3) tumors formed.
After 24 hours, we extracted the tumors, homogenized them and determined the level of IGF-IR. To determine IGF-IR levels, we diluted the SC-713 antibody in Blocking buffer to a final concentration of […] and added 100 μl to each well of a Reacti-Bind Goat anti-rabbit (GAR) coated plate (Pierce). We incubated the plates at room temperature for 1 hour with shaking and then washed the plates five times with wash buffer. We then weighed tumor samples that had been prepared as described above and homogenized them in lysis buffer (1 ml/100 mg). We diluted 12.5 μl of tumor extract with lysis buffer to a final volume of 100 μl and added this to each well of a 96-well plate. We incubated the plates at room temperature with shaking for 1-2 hours and then washed the plates five times with Wash buffer. We then added 100 μl HRP-PY54 or biotinylated anti-IGF-IR antibody in Blocking buffer to each well and incubated at room temperature with shaking for 30 minutes. We then washed the plates five times with wash buffer and developed the plates. […] We then quantitated the signal by shaking for 10 seconds and measuring OD450nm. […]
Tumors were induced in nude mice as described in Example VIII. […] Tumors were extracted and IGF-IR levels were measured by ELISA as described in Example VIII.

A431 tumors = test: Growth inhibition of epidermoid carcinoma cell tumors; format: in vivo, nude mice
Protocol: Tumors were induced in nude mice essentially as described in Example IX except that A431 cells (ATCC CRL 1555) were used. A431 cells are human epidermoid carcinoma cells that overexpress EGFR. Mice with established subcutaneous tumors of approximately 250 mm^3 were treated on days 1, 8, 15, 22 and 29 with 500 μg 2.13.2 antibody (i.p.) or were treated once daily for 27 days with 10 mg/kg CP-358,774 given orally (p.o.), either as single agents or in combination, as described in Example IX. CP-358,774 is described in U.S. Pat. No. 5,747,498 and Moyer et al., Cancer Research 57: 4838-4848 (1997), herein incorporated by reference.

guinea pig IGF-IR = test: Species crossreactivity by immunoprecipitation/Western blot; format: binding; details: immunoprecipitation, antibody 1 μg/ml
Protocol: (§1) To perform immunoprecipitation experiments, we plated cells in DMEM high glucose media supplemented with L-glutamine (0.29 mg/ml), 10% heat-inactivated FBS, and 500 μg/ml each of geneticin, penicillin and streptomycin to 50% confluence in T25 flasks. We then added 100 μl of an antibody of the invention in Hank's buffered saline solution (HBSS; Gibco BRL) at a concentration of 1 μg/ml. We incubated the plates for 30 minutes at 37° C. in an incubator and then stimulated the cells with IGF-I at 100 ng/ml for 10 minutes at room temperature. We lysed the cells in RIPA buffer (Harlow and Lane, supra) and immunoprecipitated IGF-IR with 2 μg of pan-specific SC-713 anti-IGF-IR antibody (Santa Cruz) plus protein A agarose beads for 1 hour at 4° C. We pelleted the beads and wash three times with PBS/T (PBS+0.1% Tween-20) and then boiled the beads in 40 μl Laemmli buffer containing 5% βME.
(§2) The samples prepared as described above were then analyzed by Western blot. We loaded 12 μl of each sample per lane on 4-10% gradient Novex™ gels run with 1×MES buffer (Novex™). Gels were run at 150V for 1 hour or at 200V for approximately 30 minutes. We then transferred the gel to a membrane in Novex™ transfer buffer with 10% methanol either overnight at 100 mA or for 1-1.5 hours at 250 mA. We then allowed the membrane to dry completely and blocked at room temperature with TBS (Tris-buffered saline pH 8.0) containing Superblock (Pierce Chemical Co.). We added the IGF-IR blotting antibody SC713 (Santa Cruz) to detect immunoprecipitated IGF-IR.

rabbit IGF-IR = test: as above; format: binding; details: immunoprecipitation, antibody 1 μg/ml
Protocol: as §1, §2

Rhesus IGF-IR = test: as above; format: binding; details: immunoprecipitation, antibody 1 μg/ml
Protocol: as §1, §2

canine IGF-IR = test: as above; format: binding; details: immunoprecipitation, antibody 1 μg/ml
Protocol: as §1, §2

IGF-IR from the marmoset = test: as above; format: binding; details: immunoprecipitation, antibody 1 μg/ml
Protocol: as §1, §2

[1] = biological target: T1, extracellular domain of IGF-IR (Homo sapiens, UniProt P08069); test: BIAcore affinity measurement, Protocol 2; format: binding; details: BIAcore 3000; as Fagerstam et al.
T1 construct: Different concentrations of the extracellular domain of IGF-IR were injected on the sensorchip
Protocol: We performed affinity measures of purified antibodies by surface plasmon resonance using the BIAcore 3000 instrument, following the manufacturer's protocols.
BIAcore measurements were performed essentially as described by Fagerstam et al. “Detection of antigen-antibody interactions by surface plasmon resonance. Applications to epitope mapping.” J. Mol. Recog. 3: 208-214. (1990).

[2] = intraperitoneal injection, tumors extracted after 24 hours

IGF-IR receptor levels in tumors over time (IGF-IR; 125 μg by intraperitoneal injection): down-regulated
IGF-IR phosphotyrosine (phosphorylated IGF-IR) in tumors (IGF-IR; [2]): decrease
total IGF-IR protein in tumors (IGF-IR; [2]): decrease
Kd [1]: 1.53 nM
Substance: 2.13.2: human IgG2κ monoclonal antibody specific for IGF-IR from hybridoma 2.13.2 (ATCC PTA-2788)
effect on effectiveness of CP-358,774 (A431 tumors; 500 μg i.p. on days 1, 8, 15, 22 and 29 with 10 mg/kg CP-358,774 p.o. daily for 27 days): enhances the effectiveness of CP-358,774
A431 tumor growth (A431 tumors; multiple doses, alone or in combination with CP-358,774 (FIG. 16)): inhibit A431 tumor growth
binding to guinea pig IGF-IR (guinea pig IGF-IR): not
binding to rabbit IGF-IR (rabbit IGF-IR): not
binding to Rhesus IGF-IR (Rhesus IGF-IR): able to bind
binding to canine IGF-IR (canine IGF-IR): not
binding to marmoset IGF-IR (IGF-IR from the marmoset): not
